Test results as given in US8487095B2, “Acid addition salts, hydrates and polymorphs of 5-(2,4-dihydroxy-5-iso-propyl-phenyl)-4-(4-morpholin-4-ylmethyl-phenyl)-isoxazole-3-carboxylic acid ethylamide and formulations comprising these forms” (priority 2007, dated 2013).
Structures can show the parent of a compound that is named as a salt. Where two headings read alike, the source gives them in different places.

Key:
[1] = Hygroscopicity by Dynamic Water Sorption (DVS); type: physicochemical; conditions: 25° C.; for found to be hygroscopic: DVS, 'Neither' = not hygroscopic
Description: Hygroscopicity is measured using a Dynamic Water Sorption (DVS) apparatus. Measurements are performed at 25° C. using about 8-10 mg of substance. The r.h. is changed in steps of 10% r.h. as follows: 40-0-95-0-40% r.h. The minimum stage time is 60 min, the maximum 180 min, if the change in mass of 10 min is less than 0.002%/min, the r.h. is changed to the next step.

[2] = Solubility of the free base and its salts (description); type: physicochemical
[3] = Equilibration in suspension (polymorphism); type: physicochemical; conditions: over a range of applied conditions
Excerpt: Lack of polymorphism is a beneficial property for a solid form designated to be developed as a medicament.

[4] = Stability and crystal formation of aqueous mesylate solutions on storage; type: physicochemical
Excerpt: The expression “free of any other salts” as used herein means that neither any salts derived from inorganic or organic acids, such as sodium chloride, as isotonic agent nor any buffer salts are present.
In one embodiment, the formulation consists of the mesylate salt of an isotonic aqueous solution of 5-(2,4-dihydroxy-5-isopropyl-phenyl)-4-(4-morpholin-4-ylmethyl-phenyl)-isoxazole-3-carboxylic acid ethylamide and 5% w/w of glucose or mannitol. […] Furthermore, the pH of such a solution prevents Maillard reactions during autoclavation of the 5% glucose solution which would lead to discoloration at neutral pH.

[5] = Stress tests in solution or suspensions, 4 weeks at 50° C. (Example 8); type: physicochemical
Description: The stability of the AUY922 mesylate salt in different aqueous media were determined under stress conditions (4 weeks at 50° C.) and the following appearance/content recovery/sum of by- and degradation products were found: […]

[6] = Solubility of the mesylate salt in different aqueous media (Example 7); type: physicochemical
Description: The solubility of the 5-(2,4-dihydroxy-5-isopropyl-phenyl)-4-(4-morpholin-4-ylmethyl-phenyl)-isoxazole-3-carboxylic acid ethylamide (AUY922) mesylate salt in different aqueous media were determined and found to be as follows: […]

[7] = pH and autoclavation of the 4.8-5.2 mg/ml aqueous mesylate solution; type: physicochemical
Description: Preferably, the formulation comprises between around 4.8 and 5.2 mg/ml solution, more preferably 5.0 mg/ml solution, of 5-(2,4-dihydroxy-5-isopropyl-phenyl)-4-(4-morpholin-4-ylmethyl-phenyl)-isoxazole-3-carboxylic acid ethylamide mesylate. The pH of such a solution is around 4.2 and therefore at the stability maximum of the mesylate salt. This surprising finding renders the solution particularly suitable for pharmaceutical use. In particular, it allows to use the solution without any other excipients, such as buffers, for stabilizing the drug substance.

[8] = Light sensitivity; type: physicochemical; conditions: as solid as well as in solution
[9] = cited from earlier work
[10] = clinical, humans; cited from earlier work
[11] = water, read-out: solubility in water
[12] = buffer pH 6.0 (phosphate buffer)
[13] = buffer pH 6.8 (phosphate buffer)

## CCNC(=O)c1noc(-c2cc(C(C)C)c(O)cc2O)c1-c1ccc(CN2CCOCC2)cc1 [free base, 5-(2,4-Dihydroxy-5-isopropyl-phenyl)-4-(4-morpholin-4-ylmethyl-phenyl)-isoxazole-3-carboxylic acid ethylamide]
[1]; 80% relative humidity
  maximum uptake of water: 1.8%
[1]
  found to be hygroscopic: slightly hygroscopic
[2]
  solubility in 0.1 N HCl: 1000 to 2500 µg/mL
[2]; water
  solubility in water: less than 0.1 mg/ml

## CCNC(=O)c1noc(-c2cc(C(C)C)c(O)cc2O)c1-c1ccc(CN2CCOCC2)cc1 [hydrochloride salt, 5-(2,4-Dihydroxy-5-isopropyl-phenyl)-4-(4-morpholin-4-ylmethyl-phenyl)-isoxazole-3-carboxylic acid ethylamide hydrochloric acid salt]
[1]
  found to be hygroscopic: Neither
[3]
  change of crystalline form by equilibration in suspension: did not change
[2]
  solubility in 0.1 N HCl: less than 1 mg/ml
[2]; pH 5
  solubility at pH 5: 1-2.5 mg/ml
[2]; water
  solubility in water: 2500 to 5000 µg/mL

## CCNC(=O)c1noc(-c2cc(C(C)C)c(O)cc2O)c1-c1ccc(CN2CCOCC2)cc1.O=C(O)C(O)C(O)C(=O)O [tartrate salt, 5-(2,4-dihydroxy-5-isopropyl-phenyl)-4-(4-morpholin-4-ylmethyl-phenyl)-isoxazole-3-carboxylic acid ethylamide tartrate]
[2]; [11]
  solubility: > 2000 µg/mL

## CCNC(=O)c1noc(-c2cc(C(C)C)c(O)cc2O)c1-c1ccc(CN2CCOCC2)cc1 [mesylate salt, 5-(2,4-Dihydroxy-5-isopropyl-phenyl)-4-(4-morpholin-4-ylmethyl-phenyl)-isoxazole-3-carboxylic acid ethylamide mesylate]
[1]; mesylate
  found to be hygroscopic: Neither
[4]; in the presence of other salts (e.g. sodium chloride, buffer salts)
  crystal formation in solution: crystals are formed sooner or later
[4]; isotonic aqueous solution with 5% w/w of glucose or mannitol
  chemical stability in formulation: chemically stable
[4]; isotonic aqueous solution with 5% w/w of glucose or mannitol, longer storage time, e.g. several months
  crystal formation on storage: crystal formation can be avoided
[5]; 0.9% NaCl
  appearance: colorless solution
  sum of by- and degradation products: 0.34%
[5]; 5% glucose solution
  appearance: colorless solution
  sum of by- and degradation products: 0.34%
[5]; Water
  appearance: colorless solution
  sum of by- and degradation products: 0.32%
[5]; buffer pH1.0 (HCl)
  appearance: colorless solution
  sum of by- and degradation products: 2.83%
[5]; buffer pH2.0 (citrate buffer)
  appearance: colorless solution
  sum of by- and degradation products: 0.58%
[5]; buffer pH3.0 (citrate buffer)
  appearance: colorless solution
  sum of by- and degradation products: 0.47%
[5]; buffer pH 4.0 (acetate buffer)
  appearance: colorless solution
  sum of by- and degradation products: 0.36%
[5]; buffer pH 5.0 (acetate buffer)
  appearance: colorless solution
  sum of by- and degradation products: 0.50%
[5]; [12]
  appearance: colorless suspension
  sum of by- and degradation products: 0.49%
[5]; [13]
  appearance: colorless suspension
  sum of by- and degradation products: 0.79%
[5]; buffer pH8.0 (borate buffer)
  appearance: colorless suspension
  sum of by- and degradation products: 0.26%
[5]; stress conditions
  pH of stability maximum: 4
[6]; 0.9% NaCl solution, saline or isotonic, thermodynamic from solid
  solubility: 12800 µg/mL
[6]; 5% glucose solution, saline or isotonic, thermodynamic from solid
  solubility: 39000 µg/mL
[6]; 5% mannitol solution, saline or isotonic, thermodynamic from solid
  solubility: 39000 µg/mL
[6]; aqueous buffer, thermodynamic from solid, buffer pH 4.0 (acetate buffer)
  solubility: 14600 µg/mL
[6]; aqueous buffer, thermodynamic from solid, buffer pH 5.0 (acetate buffer)
  solubility: 3200 µg/mL
[6]; aqueous buffer, thermodynamic from solid, buffer pH 6.0 (phosphate buffer)
  solubility: 600 µg/mL
[6]; aqueous buffer, thermodynamic from solid, buffer pH 7.0 (phosphate buffer)
  solubility: 700 µg/mL
[6]; aqueous buffer, thermodynamic from solid, buffer pH 8.0 (borate buffer)
  solubility: 1800 µg/mL
[6]; pH 3.6, thermodynamic from solid, Water (pH of the saturated solution=3.6)
  solubility: 37500 µg/mL
[6]; saline or isotonic, thermodynamic from solid, 5% glucose solution pH 4
  solubility: 35600 µg/mL
[6]; saline or isotonic, thermodynamic from solid, 5% glucose solution pH 7
  solubility: 37500 µg/mL
[7]; aqueous solution, around 4.8 to 5.2 mg/ml mesylate
  pH of the solution: around 4.2
[7]; solution of around 4.8 to 5.2 mg/ml, about 120° C., 20 to 40 minutes, around 2 bar
  stability to autoclavation: without causing any color changes or degradation products
[2]
  solubility compared with the free base (and other salts): superior
[2]; mesylate
  solubility in 0.1 N HCl: 10000 to 20000 µg/mL
[2]; pH 5, aqueous buffer, pH 5, read-out: solubility at pH 5
  solubility: 1000 to 2500 µg/mL
[2]; water, pH 4, water, water at pH 4, read-out: solubility in water at pH 4
  solubility: 33500 µg/mL
[8]
  light sensitivity: light sensitive

## 5-(2,4-dihydroxy-5-isopropyl-phenyl)-4-(4-morpholin-4-ylmethyl-phenyl)-isoxazole-3-carboxylic acid ethylamide hemi fumarate [hemi fumarate salt]
[2]; water
  solubility in water: 100 to 250 µg/mL

## CCNC(=O)c1noc(-c2cc(C(C)C)c(O)cc2O)c1-c1ccc(CN2CCOCC2)cc1.O=P(O)(O)O [phosphate salt, 5-(2,4-dihydroxy-5-isopropyl-phenyl)-4-(4-morpholin-4-ylmethyl-phenyl)-isoxazole-3-carboxylic acid ethylamide phosphate]
[2]; [11]
  solubility: 500 to 1000 µg/mL

## C=CCNC1=C2C[C@@H](C)C[C@H](OC)[C@H](O)[C@@H](C)/C=C(\C)[C@H](OC(N)=O)[C@@H](OC)/C=C\C=C(/C)C(=O)NC(=CC1=O)C2=O [Example 17-AAG, 17-allylamino-17-demethoxy-geldanamycin]
[9]
  solubility: poor solubility
[10]
  dose limiting toxicity: hepatic toxicity
